From PubChem BioAssay (NCI)
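Protocol summary: plate cells (96-well), add compound at 5 concentrations, incubate 48 h, interpolate endpoints linearly. GI50 = concentration required for 50% inhibition of growth. The concentration for full growth arrest is given as TGI.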

How the values were obtained:
Assay in all cases: DTP human tumour cell line panel, 48 h
A498 renal = test system: A498 renal
OVCAR-3 ovarian = test system: OVCAR-3 ovarian
RPMI-8226 leukemia = test system: RPMI-8226 leukemia
NCI-H522 lung = test system: NCI-H522 lung
A549 NSCLC = test system: A549 NSCLC
TK-10 renal = test system: TK-10 renal
UACC-257 melanoma = test system: UACC-257 melanoma
M14 melanoma = test system: M14 melanoma
SK-MEL-2 melanoma = test system: SK-MEL-2 melanoma
SW-620 colon = test system: SW-620 colon
PC-3 prostate = test system: PC-3 prostate
SNB-19 CNS = test system: SNB-19 CNS
SK-MEL-5 melanoma = test system: SK-MEL-5 melanoma
SF-539 CNS = test system: SF-539 CNS
HCT-116 colon = test system: HCT-116 colon
HL-60(TB) leukemia = test system: HL-60(TB) leukemia
OVCAR-5 ovarian = test system: OVCAR-5 ovarian
DU-145 prostate = test system: DU-145 prostate
HS 578T breast = test system: HS 578T breast
NCI-H460 lung = test system: NCI-H460 lung
KM12 colon = test system: KM12 colon
T-47D breast = test system: T-47D breast
ACHN renal = test system: ACHN renal
LOX IMVI melanoma = test system: LOX IMVI melanoma
SN12C renal = test system: SN12C renal
EKVX NSCLC = test system: EKVX NSCLC
UACC-62 melanoma = test system: UACC-62 melanoma

In the case of `Oc1ccc2oc3ncc(Cl)c(-c4ccccc4)c3c2c1`, the GI50 (A498 renal) is reported as greater than 100 µM, the TGI (A498 renal) is reported as greater than 100 µM and the GI50 (OVCAR-3 ovarian) is reported as greater than 100 µM. The TGI (OVCAR-3 ovarian) was greater than 100 µM, the GI50 (RPMI-8226 leukemia) was greater than 100 µM and the TGI (RPMI-8226 leukemia) was greater than 100 µM. It also gave a GI50 (NCI-H522 lung) greater than 100 µM, a TGI (NCI-H522 lung) greater than 100 µM and a GI50 (A549 NSCLC) greater than 100 µM. For the same molecule, the TGI (A549 NSCLC) was greater than 100 µM, the GI50 (TK-10 renal) was greater than 100 µM and the TGI (TK-10 renal) was greater than 100 µM. For the same molecule, the GI50 (UACC-257 melanoma) was greater than 100 µM, the TGI (UACC-257 melanoma) was greater than 100 µM and the GI50 (M14 melanoma) was greater than 100 µM. The TGI (M14 melanoma) was greater than 100 µM, the GI50 (SK-MEL-2 melanoma) was greater than 100 µM and the TGI (SK-MEL-2 melanoma) was greater than 100 µM. The GI50 (SW-620 colon) was greater than 100 µM, the TGI (SW-620 colon) was greater than 100 µM and the GI50 (PC-3 prostate) was greater than 100 µM. The TGI (PC-3 prostate) was greater than 100 µM, the GI50 (SNB-19 CNS) was greater than 100 µM and the TGI (SNB-19 CNS) was greater than 100 µM. The GI50 (SK-MEL-5 melanoma) was greater than 100 µM, the TGI (SK-MEL-5 melanoma) was greater than 100 µM and the GI50 (SF-539 CNS) was greater than 100 µM. For the same molecule, the TGI (SF-539 CNS) was greater than 100 µM, the GI50 (HCT-116 colon) was greater than 100 µM and the TGI (HCT-116 colon) was greater than 100 µM. It also gave a GI50 (HL-60(TB) leukemia) greater than 100 µM, a TGI (HL-60(TB) leukemia) greater than 100 µM and a GI50 (OVCAR-5 ovarian) greater than 100 µM. It also gave a TGI (OVCAR-5 ovarian) greater than 100 µM, a GI50 (DU-145 prostate) greater than 100 µM and a TGI (DU-145 prostate) greater than 100 µM. For the same molecule, the GI50 (HS 578T breast) was greater than 100 µM, the TGI (HS 578T breast) was greater than 100 µM and the GI50 (NCI-H460 lung) was greater than 100 µM. It also gave a TGI (NCI-H460 lung) greater than 100 µM, a GI50 (KM12 colon) greater than 100 µM and a TGI (KM12 colon) greater than 100 µM. It also gave a GI50 (T-47D breast) greater than 100 µM, a TGI (T-47D breast) greater than 100 µM and a GI50 (ACHN renal) greater than 100 µM. It also gave a TGI (ACHN renal) greater than 100 µM, a GI50 (LOX IMVI melanoma) greater than 100 µM and a TGI (LOX IMVI melanoma) greater than 100 µM. For the same molecule, the GI50 (SN12C renal) was greater than 100 µM, the TGI (SN12C renal) was greater than 100 µM and the GI50 (EKVX NSCLC) was greater than 100 µM. For the same molecule, the TGI (EKVX NSCLC) was greater than 100 µM, the GI50 (UACC-62 melanoma) was greater than 100 µM and the TGI (UACC-62 melanoma) was greater than 100 µM.
